Test results taken from patent US12343316B2, “Cannabidiol and/or derivatives thereof for use in the treatment of mitochondrial diseases” (U[…] DE BARCELONA, priority 2019, dated 2025).

Tests used:
[1] = system: Ndufs4−/− mice; assay: Accelerating rotarod performance in Ndufs4−/− mice; assay type: in vivo, mouse; conditions: Ndufs4KO mice, CBD 100 mg/kg once daily; postnatal day 30, 40, 50
From the text: (§1) Two mouse lines were used in this study: (1) a validated mouse genetic model of MD (Kruse, S. E., et al. Cell Metab. 2008, 7: 312-320; Quintana, A., et al. Proc. Natl. Acad. Sci. USA. 2010, 107: 10996-11001), lacking Ndufs4 constitutively (Ndufs4^−/−, Ndufs4 KO) and wild-type (WT) littermates (Ndufs4^+/+) as controls, and (2) a conditional knockout mouse line lacking Ndufs4 selectively in GABAergic cells (Bolea et al. 2019 (https://elifesciences.org/articles/47163). For the latter, mice expressing cre-recombinase under the control of the Gad2 promoter (Quintana, A., et al. Nat. Neurosci. 2012, 15: 1547-1555) and one floxed Ndufs4 allele (Gad2^cre/+:Ndufs4^lox/+) were bred with mice carrying two floxed Ndufs4 alleles (Ndufs4^lox/lox). Out of all the possible offspring, Gad2^cre/+: Ndufs4^lox/lox mice bear Ndufs4 deficiency selectively in GABAergic neurons. Mice with Gad2^cre/+:Ndufs4^lox/+ genotype with one functional Ndufs4 allele as well as mice with the Gad2^cre/+:Ndufs4^lox/lox genotype were used as controls.
Rotarod was performed at postnatal day 30, 40, and 50. Mice were placed on a rotating drum that gradually accelerated from 4 rpm to 40 rpm over 300 sec. Each trial ended when a mouse fell off, made one complete backward revolution while hanging on, or reached 5-min. Each mouse was tested in 3 trials/day spaced 20 min apart. The results of the 3 trials were averaged.

[2] = system: Gad2:Ndufs4cKO mice; assay: Survival of Gad2:Ndufs4cKO mice (cell type-specific mouse model of Leigh syndrome); assay type: in vivo
From the text: as §1
Given the early onset severe phenotype that results in death at a median age of ˜40 days in Ndufs4^−/− mice, it is difficult to study certain clinical signs that recapitulate some symptoms of the human pathology. […]

[3] = system: Ndufs4−/− mice; assay: Survival of Ndufs4−/− mice (mouse model of Leigh syndrome); assay type: in vivo
From the text: as §1
Ndufs4 encodes a protein involved in assembly, stability, and activity of complex I of the mitochondrial electron transport chain. Ndufs4^−/− mice display a progressive neurodegenerative phenotype, which resembles the human disease and includes retarded growth rate, weight loss, lethargy, loss of motor skills, and premature death.

[4] = system: Ndufs4−/− mice; assay: Clasping onset in Ndufs4−/− mice; assay type: in vivo, mouse; conditions: CBD 100 mg/kg once daily vs vehicle-treated, p<0.05
From the text: as §1
Clasping behaviour was used as a sign of neurological degeneration (Johnson, S. C., et al. Science. 2013, 342: 1524-1528). Clasping consisted in an inward curling of the spine and a retraction of the forelimbs and/or hindlimbs toward the midline of the body.

[5] = rodents; cited from earlier work
[6] = system: Gad2:Ndufs4cKO mice; assay: Three-chamber social approach test; assay type: in vivo, mouse; conditions: control mice, CBD 100 mg/kg twice/day
From the text: as §1, with “Mice with Gad2^cre/+:Ndufs4^lox/+ genotype with one functional Ndufs4 allele as well as mice with the Gad2^cre/+:Ndufs4^lox/lox genotype were used as controls.” left out
A three-chamber arena was used to assess sociability as previously described (Puighermanal et al, Front Mol Neurosci., 2017, 10:419). […] The time spent sniffing the unfamiliar mouse and the empty wire cage was manually scored. The discrimination index for sociability was calculated as follows: (time exploring unfamiliar mouse—time exploring empty wire cage)/(total exploration time)*100. […]

**Q.** For `C=C(C)[C@@H]1CCC(C)=C[C@H]1c1c(O)cc(CCCCC)cc1O` [CBD, (−)-trans-2-p-mentha-l,8-dien-3-yl-5-pentylresorcinol], which “rotarod performance (time to fall off)” value [1] is on record?
**A.** The value was “delayed the progressive decline”.

**Q.** And the average survival time ([2]; CBD 100 mg/kg intraperitoneal twice daily from postnatal day 35-40, p<0.0001)?
**A.** Its average survival time is 87 days.

**Q.** What about the “life span (survival)” value ([2]; CBD 100 mg/kg twice daily, log-rank p<0.0001) of the same molecule?
**A.** Its value is “extended the life span”.

**Q.** What about the median survival ([3]; Ndufs4KO mice, CBD 100 mg/kg once/day intraperitoneal from postnatal day 24-30) of the same molecule?
**A.** The median survival was 75.5 days.

**Q.** And the “life span (survival)” value ([3]; Ndufs4−/− mice, CBD 100 mg/kg once daily, log-rank p<0.0001)?
**A.** Its value is “significantly extended the life span”.

**Q.** And the “appearance (onset) of clasping” value [4]?
**A.** Its value is “significantly delayed”.

**Q.** What about the half-life [5] of the same molecule?
**A.** Its half-life is ~4.5 h.

**Q.** What about the “sociability (social interaction)” value [6] of the same molecule?
**A.** The value was “no effect”.
